Experimental data: patent US20140377340A1, “HLA-DR BINDING PEPTIDES AND THEIR USES” (priority 2007, published 2014)
Ends that are not written are not given here.

What was measured:
[1] = target: T1, purified HLA DRB1*0101 (Homo sapiens, UniProt P01903+P01911, A100R/D57E/F55L/F60I/F76Y/I96L/L162R/M171V/P40L/Q125E/R42F/V115G/Y59C); test: HLA-DR radioligand binding inhibition assay, DRB1*0101; conditions: IC50 nM purified HLA DRB1 *0101, purified HLA DRB1*0101
T1 construct: purified from EBV transformed homozygous cell lines or single MHC allele transfected 721.221, C1R, or fibroblast lines; made in house
Summary of the method: (§1)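 The probe, 1-10 nM radiolabeled peptide, was incubated with 1 μM to 1 nM HLA-DR for 2 days in the presence of protease inhibitors.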

[2] = target: T2, purified HLA DRB1*0301 (Homo sapiens, UniProt P01903+P01911, A100K/A102G/A103R/A169T/F55Y/I96L/K41T/L162R/M171V/P40S/Q125H/Q178H/Q39Y/R42S/S66N/T106N/T262R/W38E/Y61H); test: HLA-DR radioligand binding inhibition assay, DRB1*0301; conditions: IC50 nM purified HLA DRB1 *0301, purified HLA DRB1*0301
T2 construct: purified from EBV transformed homozygous cell lines or single MHC allele transfected 721.221, C1R, or fibroblast lines; made in house
Description: (§2) Instead, wells of an opaque white 96-well Optiplate (Packard) are coated with 3 μg (100 μl@ 30 μg/ml) of HLA-specific antibody (Ab) that “capture” complexes of radiolabeled MHC and unlabeled peptide transferred from the molecular binding assay plate in 100 μl of 0.05% NP40/PBS. After a 3-hour incubation period, the supernatant is decanted and scintillation fluid (Microscint 20) added. Captured complexes are then measured on a microplate scintillation and luminescence counter (TopCount NXTTM; Packard).
(§3) HLA-DR purification. Fifteen distinct HLA-DR molecules were used in quantitative assays to measure the binding of peptides to solubilized HLA-DR molecules. […] Briefly, columns of inactivated Sepharose CL4B and Protein A Sepharose were used as pre-columns. HLA-DR molecules were captured by passage of lysates over LB3.1 monoclonal antibody (anti-HLA-DRA) columns. Antibody columns were washed with 10 mM Tris-HCL, pH8.0 with 1% (v/v) NP-40, followed by PBS containing 0.4% (w/v) n-octylglucoside.
(§4) Briefly, 1-10 nM of radiolabeled peptide was co-incubated for 2 days at either room temperature or 37° C. with 1 μM to 1 nM purified HLA-DR molecules in the presence of a cocktail of protease inhibitors. Assays were performed at various pH conditions, ranging from pH 4 to pH 7. […] After incubation, the percentage of HLA-DR-bound radioactivity is determined by capturing HLA-DR/peptide complexes on Optiplates (Packard Instruments, Meriden, Conn.) coated with the LB3.1 antibody and determining bound counts per minute using the TopCount microscintillation counter (Packard Instruments).

[3] = target: T3, purified HLA DRB1*0401 (Homo sapiens, UniProt P01903+P01911, A100K/A169T/F76Y/I96L/K127E/L162R/M171V/N62H/P40V/Q125Y/R42H/S133A/S149N/S66Y/V115G/V209L/W38E); test: HLA-DR radioligand binding inhibition assay, DRB1*0401; conditions: IC50 nM purified HLA DRB1 *0401, purified HLA DRB1*0401
T3 construct: purified from EBV transformed homozygous cell lines or single MHC allele transfected 721.221, C1R, or fibroblast lines; made in house
Summary of the method: as §1

[4] = target: T4, purified HLA DRB1*1101 (Homo sapiens, UniProt P01903+P01911, A100R/A169T/A87E/I96F/K41T/L162R/M171V/P40S/Q125H/Q178H/Q39Y/Q99D/R42S/S66Y/T262R/V115G/W38E); test: HLA-DR radioligand binding inhibition assay, DRB1*1101; conditions: IC50 nM purified HLA DRB1 *1101, purified HLA DRB1*1101
T4 construct: purified from EBV transformed homozygous cell lines or single MHC allele transfected 721.221, C1R, or fibroblast lines; made in house
Summary of the method: as §1

[5] = target: T5, purified HLA DRB1*1302 (Homo sapiens, UniProt P01903+P01911, A100E/A169T/K41T/L162R/M171V/P40S/Q125H/Q178H/Q39Y/Q99D/R42S/S66N/T262R/V115G/W38E/Y61H); test: HLA-DR radioligand binding inhibition assay, DRB1*1302
T5 construct: purified from EBV transformed homozygous cell lines or single MHC allele transfected 721.221, C1R, or fibroblast lines; made in house
Summary of the method: as §1

[6] = target: T6, purified HLA DRB1*1501 (Homo sapiens, UniProt P01903+P01911); test: HLA-DR radioligand binding inhibition assay, DRB1*1501
T6 construct: purified from EBV transformed homozygous cell lines or single MHC allele transfected 721.221, C1R, or fibroblast lines; made in house
Summary of the method: as §1

[7] = target: T7, purified HLA DRB1*0405 (Homo sapiens, UniProt P01903+P01911, A100R/A169T/D86S/F76Y/I96L/K127E/L162R/M171V/N62H/P40V/Q125Y/R42H/S133A/S149N/S66Y/V115G/V209L/W38E); test: HLA-DR radioligand binding inhibition assay, DRB1*0405; conditions: IC50 nM purified HLA DRB1 *0405, purified HLA DRB1*0405
T7 construct: purified from EBV transformed homozygous cell lines or single MHC allele transfected 721.221, C1R, or fibroblast lines; made in house
Summary of the method: as §1

[8] = target: T8, purified HLA DRB1*0701 (Homo sapiens, UniProt P01903+P01911, A100R/A102G/A103Q/D57E/D86V/E43K/F76Y/K127E/L162R/M171V/P40G/Q125H/Q99D/R33Q/R42Y/R54Q/S133A/S66F/T210M/V115G/Y107V/Y59L/Y89S); test: HLA-DR radioligand binding inhibition assay, DRB1*0701; conditions: IC50 nM purified HLA DRB1 *0701, purified HLA DRB1*0701
T8 construct: purified from EBV transformed homozygous cell lines or single MHC allele transfected 721.221, C1R, or fibroblast lines; made in house
Summary of the method: as §1

[9] = target: T9, purified HLA DRB4*0101 (Homo sapiens, UniProt P01903+P13762, G164S); test: HLA-DR radioligand binding inhibition assay, DRB4*0101; conditions: IC50 nM purified HLA DRB4 *0101, purified HLA DRB4*0101
T9 construct: purified from EBV transformed homozygous cell lines or single MHC allele transfected 721.221, C1R, or fibroblast lines; made in house
Summary of the method: as §1

[10] = target: T10, purified HLA DRB5*0101 (Homo sapiens, UniProt P01903+Q30154); test: HLA-DR radioligand binding inhibition assay, DRB5*0101; conditions: IC50 nM purified HLA DRB5 *0101, purified HLA DRB5*0101
T10 construct: purified from EBV transformed homozygous cell lines or single MHC allele transfected 721.221, C1R, or fibroblast lines; made in house
Summary of the method: as §1

[11] = target: T11, purified HLA DRB1*1201 (Homo sapiens, UniProt P01903+P01911, A100R/A169T/D57E/D86V/F55L/H45Y/K41T/L162R/M171V/P40S/Q125H/Q178H/Q39Y/Q99D/R42G/S66L/T262R/V114A/V67L/W38E/Y59H/Y61H/Y89S); test: HLA-DR radioligand binding inhibition assay, DRB1*1201
T11 construct: purified from EBV transformed homozygous cell lines or single MHC allele transfected 721.221, C1R, or fibroblast lines; made in house
Description: as §2
as §3, with “n-octylglucoside. […] The pH was reduced to 8.0 and the eluates were concentrated by centrifugation in Centriprep 30 concentrators at 2000 rpm (Amicon, Beverly, Mass.).” for “n-octylglucoside.”
as §4, with “Instruments). […] Competitor peptides are tested in 2-4 complete, independent experiments, at concentrations ranging from […].” for “Instruments).”

[12] = target: T12, purified HLA DRB1*0404 (Homo sapiens, UniProt P01903+P01911, A100R/A169T/F76Y/I96L/K127E/L162R/M171V/N62H/P40V/Q125Y/R42H/S133A/S149N/S66Y/V209L/W38E); test: HLA-DR radioligand binding inhibition assay, DRB1*0404; conditions: IC50 nM purified HLA DRB1 *0404, purified HLA DRB1*0404
T12 construct: purified from EBV transformed homozygous cell lines or single MHC allele transfected 721.221, C1R, or fibroblast lines; made in house
Description: as §2, §3, §4

T4 sequence (P01903 26-254, other chains not shown): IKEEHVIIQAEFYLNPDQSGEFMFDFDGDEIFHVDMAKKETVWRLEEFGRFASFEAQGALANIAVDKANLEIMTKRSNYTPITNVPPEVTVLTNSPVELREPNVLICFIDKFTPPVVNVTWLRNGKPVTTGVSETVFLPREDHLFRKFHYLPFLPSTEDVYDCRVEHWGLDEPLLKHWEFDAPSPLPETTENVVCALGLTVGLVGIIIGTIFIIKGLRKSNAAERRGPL

IC50 [1] | IC50 [2] | IC50 [3] | IC50 [4] | IC50 [5] | IC50 [6] | IC50 [7] | IC50 [8] | IC50 [9] | IC50 [10] | IC50 [11] | IC50 [12] | Molecule
8210 nM | 151 nM | 605 nM | 756 nM | 4750 nM | 8180 nM | 12900 nM | > 20000 nM | 4030 nM | > 20000 nM |  |  | CSCC[C@H](NC(=O)[C@H](CC(N)=O)NC(=O)[C@H](CCC(N)=O)NC(=O)[C@H](CCC(N)=O)NC(=O)[C@H](C)NC(=O)[C@H](CCC(N)=O)NC(=O)[C@H](CCCNC(=N)N)NC(=O)[C@H](CC(C)C)NC(=O)[C@H](CO)NC(=O)[C@H](CO)NC(=O)[C@H](CCC(=O)O)NC(=O)[C@H](CC(C)C)NC(=O)[C@H](CC(C)C)NC(=O)[C@H](C)NC(=O)[C@@H](N)CCC(=O)O)C(=O)O [Peptide 9019.0014]
 | > 20000 nM |  |  |  |  |  |  |  |  |  |  | TMRLPDERGPLEHLY [Peptide 9019.0021]
 | 6420 nM |  |  |  |  |  |  |  |  |  |  | WNLAAMTPHDFIEHF [Peptide 9019.0013]

Further lines, the molecule ahead of its results:

Molecule | IC50 [1] | IC50 [2] | IC50 [3] | IC50 [4] | IC50 [5] | IC50 [6] | IC50 [7] | IC50 [8] | IC50 [9] | IC50 [10] | IC50 [11] | IC50 [12]
CC(C)C[C@H](NC(=O)[C@H](C)NC(=O)[C@H](Cc1ccc(O)cc1)NC(=O)[C@H](CC(N)=O)NC(=O)[C@H](CC(=O)O)NC(=O)[C@H](CCC(=O)O)NC(=O)[C@H](Cc1ccccc1)NC(=O)[C@H](CC(C)C)NC(=O)[C@H](CCC(N)=O)NC(=O)[C@@H](NC(=O)CN)[C@@H](C)O)C(=O)N[C@@H](C)C(=O)N[C@H](C(=O)N[C@@H](CC(C)C)C(=O)N[C@@H](CC(=O)O)C(=O)O)C(C)C [Peptide 9019.0001] | 210 nM | 29 nM | 640 nM | 9130 nM | 4 nM | 450 nM |  |  |  |  |  | 
CC[C@H](C)[C@H](NC(=O)[C@H](CCCNC(=N)N)NC(=O)CNC(=O)[C@H](CCCNC(=N)N)NC(=O)[C@@H](NC(=O)[C@@H](NC(=O)[C@H](CCC(N)=O)NC(=O)[C@H](CC(C)C)NC(=O)[C@@H](N)CC(N)=O)C(C)C)[C@@H](C)CC)C(=O)N[C@@H](CC(C)C)C(=O)N[C@@H](Cc1c[nH]cn1)C(=O)N[C@@H](CC(N)=O)C(=O)NCC(=O)N[C@@H](C)C(=O)N[C@@H](Cc1ccc(O)cc1)C(=O)O [Peptide 9019.0053] | 1.9 nM |  |  |  | 9.9 nM |  |  |  |  | 28 nM | 47 nM | 
CC[C@H](C)[C@H](N)C(=O)N[C@@H](CO)C(=O)N[C@@H](C)C(=O)N[C@H](C(=O)N[C@H](C(=O)NCC(=O)N[C@H](C(=O)N[C@@H](CC(C)C)C(=O)N[C@@H](CC(C)C)C(=O)N[C@H](C(=O)N[C@H](C(=O)N[C@H](C(=O)N[C@@H](CC(C)C)C(=O)NCC(=O)N[C@H](C(=O)O)C(C)C)C(C)C)C(C)C)C(C)C)[C@@H](C)CC)C(C)C)C(C)C [Peptide 9019.0067] |  |  | 450 nM | 5140 nM | 443 nM | 6000 nM | 447 nM | 941 nM | 3110 nM | > 20000 nM |  | 3000 nM
CC[C@H](C)[C@H](N)C(=O)N[C@@H](CC(N)=O)C(=O)NCC(=O)N[C@H](C(=O)N1CCC[C@H]1C(=O)N[C@@H](CCC(N)=O)C(=O)N[C@@H](CCC(N)=O)C(=O)N[C@@H](Cc1c[nH]cn1)C(=O)N[C@H](C(=O)N[C@@H](CCC(N)=O)C(=O)N[C@H](C(=O)N[C@@H](CC(C)C)C(=O)N[C@@H](Cc1ccccc1)C(=O)N[C@H](C(=O)N[C@@H](C)C(=O)O)[C@@H](C)CC)C(C)C)[C@@H](C)O)[C@@H](C)CC [Peptide 9019.0139] | 682 nM |  | 181 nM | > 20000 nM |  | 8290 nM | 942 nM | 31 nM | 2700 nM | > 20000 nM |  | 680 nM
EELLQMELLLVNKLK [Peptide 9019.0010] |  | 3380 nM |  |  |  |  |  |  |  |  |  | 
